Measurements taken from ChEMBL document CHEMBL1133297, “Synthesis and erythropoietin receptor binding affinities of N,N-disubstituted amino acids” (Bioorg Med Chem Lett, 2000).
Where a SMILES comes first, the peptide text is derived from it.

Columns and labels:
[1] = target: T1, Erythropoietin receptor (Homo sapiens) (UniProt P19235); experiment: Compound was evaluated for inhibition of [125I]EPO binding to Erythropoietin receptor (EBP) at a concentration of 50 uM
T1 sequence (whole entry): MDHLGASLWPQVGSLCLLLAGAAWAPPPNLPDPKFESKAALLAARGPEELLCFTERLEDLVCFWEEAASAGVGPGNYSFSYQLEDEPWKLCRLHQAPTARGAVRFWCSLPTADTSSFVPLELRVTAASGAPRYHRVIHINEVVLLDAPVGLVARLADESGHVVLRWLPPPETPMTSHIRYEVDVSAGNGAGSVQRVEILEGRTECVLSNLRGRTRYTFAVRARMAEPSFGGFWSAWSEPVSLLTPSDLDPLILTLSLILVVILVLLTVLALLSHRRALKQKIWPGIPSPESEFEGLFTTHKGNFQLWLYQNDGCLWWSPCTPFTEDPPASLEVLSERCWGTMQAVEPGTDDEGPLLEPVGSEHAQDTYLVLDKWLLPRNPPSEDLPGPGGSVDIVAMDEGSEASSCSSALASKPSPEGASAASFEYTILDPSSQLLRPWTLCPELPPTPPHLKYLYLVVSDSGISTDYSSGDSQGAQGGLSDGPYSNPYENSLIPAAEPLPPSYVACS

Erythropoietin receptor [2] = target: T2, Erythropoietin receptor (Homo sapiens, UniProt P19235); experiment: Compound was evaluated for inhibition of [125I]-EPO binding to Erythropoietin receptor (EBP)
T2 sequence (P19235 whole entry): T1 sequence (whole entry)

[3] = target: T1, Erythropoietin receptor (Homo sapiens); experiment: Compound was evaluated for inhibition of [125I]EPO binding to EBP (erythropoietin receptor) at a concentration of 50 uM
Erythropoietin receptor [4] = target: T2, Erythropoietin receptor; experiment: Compound was evaluated for inhibition of [125I]EPO binding to Erythropoietin receptor (EBP)

Row | inhibition [1] [%] | IC50 (Erythropoietin receptor [2]) [µM] | inhibition [3] [%] | IC50 (Erythropoietin receptor [4]) [µM] | Structure (SMILES)
1 | 81 | – | – | – | O=C(O)C[C@@H](C(=O)O)N(C/C=C/c1cccc(Oc2ccccc2)c1)C/C=C/c1cccc(Oc2ccccc2)c1
2 | 0 | – | – | – | O=C(O)CC[C@H](NC/C=C/c1cccc(Oc2ccccc2)c1)C(=O)O
3 | 59 | 10 | – | – | COC(=O)[C@H](CCCCN)N(Cc1cccc(OCc2ccccc2)c1)Cc1cccc(OCc2ccccc2)c1
4 | 28 | – | – | – | COC(=O)[C@H](CO)NC/C=C/c1cccc(Oc2ccccc2)c1
5 | 88 | 1.5 | – | – | O=C(O)CCCC(=O)NCCCC[C@H](C(=O)NCCOCCOCCNC(=O)[C@H](CCCCNC(=O)CCCC(=O)O)N(Cc1ccc(OCc2ccccc2)cc1)Cc1ccc(OCc2ccccc2)cc1)N(Cc1ccc(OCc2ccccc2)cc1)Cc1ccc(OCc2ccccc2)cc1
6 | 23 | – | – | – | O=C(O)[C@H](CO)NC/C=C/c1cccc(Oc2ccccc2)c1
7 | 37 | – | – | – | COC(=O)[C@H](CCCCN)N(Cc1ccc(OCc2ccccc2)cc1)Cc1cccc([N+](=O)[O-])c1
8 | 6 | – | – | – | COC(=O)[C@H](CCC(=O)O)NC/C=C/c1cccc(Oc2ccccc2)c1
9 | 77 | 35 | – | – | COC(=O)[C@H](CCCCNS(C)(=O)=O)N(C/C=C/c1cccc(Oc2ccccc2)c1)C/C=C/c1cccc(Oc2ccccc2)c1
10 | 5 | – | – | – | COC(=O)[C@H](CCCCNC(=O)OC(C)(C)C)N(Cc1ccc(OCc2ccccc2)cc1)Cc1ccc(OCc2ccccc2)cc1
11 | 82 | 4 | – | – | O=C(O)CCCC(=O)NCCCC[C@H](C(=O)NCCCOCCCCOCCCNC(=O)[C@H](CCCCNC(=O)CCCC(=O)O)N(Cc1ccc(OCc2ccccc2)cc1)Cc1ccc(OCc2ccccc2)cc1)N(Cc1ccc(OCc2ccccc2)cc1)Cc1ccc(OCc2ccccc2)cc1
12 | 93 | 1.5 | – | – | O=C(O)CCC(=O)NCCCC[C@H](C(=O)NCCOCCOCCNC(=O)[C@H](CCCCNC(=O)CCC(=O)O)N(Cc1ccc(OCc2ccccc2)cc1)Cc1ccc(OCc2ccccc2)cc1)N(Cc1ccc(OCc2ccccc2)cc1)Cc1ccc(OCc2ccccc2)cc1
13 | 24 | – | – | – | COC(=O)[C@H](CCCCNC(=O)OC(C)(C)C)N(Cc1ccc(OCc2ccccc2)cc1)Cc1cccc([N+](=O)[O-])c1
14 | 72 | 40 | – | – | C[C@@H](C(=O)O)N(C/C=C/c1cccc(Oc2ccccc2)c1)C/C=C/c1cccc(Oc2ccccc2)c1
15 | 55 | 85 | – | – | O=C(O)CCCC(=O)NCCCC[C@H](C(=O)NCCCCCCCCCCCCNC(=O)[C@H](CCCCNC(=O)CCCC(=O)O)N(Cc1ccc(OCc2ccccc2)cc1)Cc1ccc(OCc2ccccc2)cc1)N(Cc1ccc(OCc2ccccc2)cc1)Cc1ccc(OCc2ccccc2)cc1
16 | 57 | 145 | – | – | COC(=O)[C@H](CO)N(C/C=C/c1cccc(Oc2ccccc2)c1)C/C=C/c1cccc(Oc2ccccc2)c1
17 | 54 | – | – | – | COC(=O)[C@H](CCCCN)N(Cc1ccc(OCc2ccccc2)cc1)Cc1ccc(OCc2ccccc2)cc1
18 | 56 | 100 | – | – | O=C(O)CCC(=O)NCCCC[C@H](C(=O)NCCCCCCCCCCCCNC(=O)[C@H](CCCCNC(=O)CCC(=O)O)N(Cc1ccc(OCc2ccccc2)cc1)Cc1ccc(OCc2ccccc2)cc1)N(Cc1ccc(OCc2ccccc2)cc1)Cc1ccc(OCc2ccccc2)cc1
19 | 0 | – | – | – | CC(C)(C)OC(=O)CC[C@H](NC/C=C/c1cccc(Oc2ccccc2)c1)C(=O)O
20 | 78 | 42 | – | – | O=C(O)CC[C@@H](C(=O)O)N(C/C=C/c1cccc(Oc2ccccc2)c1)C/C=C/c1cccc(Oc2ccccc2)c1
21 | 0 | – | – | – | COC(=O)[C@H](CCCCNC(=O)OC(C)(C)C)N(C/C=C/c1cccc(Oc2ccc(C(C)(C)C)cc2)c1)C/C=C/c1cccc(Oc2ccc(C(C)(C)C)cc2)c1
22 | 20 | – | – | – | COC(=O)[C@H](CCCCNC(=O)OC(C)(C)C)NC/C=C/c1cccc(Oc2ccccc2)c1

Further lines, the molecule ahead of its results:

Row | Structure (SMILES) | inhibition [1] [%] | IC50 (Erythropoietin receptor [2]) [µM] | inhibition [3] [%] | IC50 (Erythropoietin receptor [4]) [µM]
23 | O=C(O)CCC(=O)NCCCC[C@H](C(=O)NCCCOCCCCOCCCNC(=O)[C@H](CCCCNC(=O)CCC(=O)O)N(Cc1ccc(OCc2ccccc2)cc1)Cc1ccc(OCc2ccccc2)cc1)N(Cc1ccc(OCc2ccccc2)cc1)Cc1ccc(OCc2ccccc2)cc1 | 65 | 6 | – | –
24 | COC(=O)[C@H](COC(C)(C)C)N(C/C=C/c1cccc(Oc2ccccc2)c1)C/C=C/c1cccc(Oc2ccccc2)c1 | 0 | – | – | –
25 | COC(=O)[C@H](CCC(=O)OC(C)(C)C)NC/C=C/c1cccc(Oc2ccccc2)c1 | – | – | 6 | –
26 | O=C(O)CN(C/C=C/c1cccc(Oc2ccccc2)c1)C/C=C/c1cccc(Oc2ccccc2)c1 | 45 | – | – | –
27 | COC(=O)[C@H](CCCCNC(=O)OC(C)(C)C)N(C/C=C/c1cccc(Oc2ccccc2)c1)C/C=C/c1cccc(Oc2ccccc2)c1 | 0 | – | – | –
28 | CC(C)(C)OC(=O)C[C@@H](C(=O)OC(C)(C)C)N(C/C=C/c1cccc(Oc2ccccc2)c1)C/C=C/c1cccc(Oc2ccccc2)c1 | 20 | – | – | –
29 | COC(=O)[C@H](CCCCNC(N)=O)N(C/C=C/c1cccc(Oc2ccccc2)c1)C/C=C/c1cccc(Oc2ccccc2)c1 | 73 | 35 | – | –
30 | O=C(O)CCCC(=O)NCCCC[C@@H](C(=O)NCCCOCCOCCOCCCNC(=O)[C@H](CCCCNC(=O)CCCC(=O)O)N(Cc1ccc(OCc2ccccc2)cc1)Cc1ccc(OCc2ccccc2)cc1)N(Cc1ccc(OCc2ccccc2)cc1)Cc1ccc(OCc2ccccc2)cc1 | 78 | 10 | – | –
31 | NCCCC[C@H](C(=O)NCCOCCOCCNC(=O)[C@H](CCCCN)N(Cc1ccc(OCc2ccccc2)cc1)Cc1ccc(OCc2ccccc2)cc1)N(Cc1ccc(OCc2ccccc2)cc1)Cc1ccc(OCc2ccccc2)cc1 | 51 | 2 | – | –
32 | O=C(O)CC[C@@H](C(=O)O)N(C/C=C/c1cccc(Oc2cccc(C(F)(F)F)c2)c1)C/C=C/c1cccc(Oc2cccc(C(F)(F)F)c2)c1 | 70 | 35 | – | –
33 | CC(C)C[C@@H]1NC(=O)[C@H]([C@@H](C)O)NC(=O)[C@H](Cc2c[nH]c3ccccc23)NC(=O)[C@H](C(C)C)NC(=O)[C@@H](NC(=O)[C@H](CCCCN)NC(=O)[C@@H]2CCCN2C(=O)[C@H](CCC(N)=O)NC(=O)CNC(=O)CN)CSSC[C@@H](C(=O)N[C@@H](Cc2ccc(O)cc2)C(=O)N[C@@H](CO)C(=O)N[C@H](C(=O)NCC(=O)NCC(N)=O)[C@@H](C)O)NC(=O)[C@H](Cc2c[nH]cn2)NC(=O)[C@H](Cc2ccccc2)NC(=O)CNC(=O)[C@@H]2CCCN2C1=O (HELM PEPTIDE1{G.G.Q.P.K.C.V.W.T.L.P.G.F.H.C.Y.S.T.G.G.[am]}$PEPTIDE1,PEPTIDE1,6:R3-15:R3$$$V2.0) | – | – | – | 5
34 | CC(C)(C)c1ccc(Oc2cccc(/C=C/CN(C/C=C/c3cccc(Oc4ccc(C(C)(C)C)cc4)c3)[C@@H](CCC(=O)O)C(=O)O)c2)cc1 | 78 | 30 | – | –
35 | COC(=O)[C@H](CCCCN)N(C/C=C/c1cccc(Oc2ccc(C(C)(C)C)cc2)c1)C/C=C/c1cccc(Oc2ccc(C(C)(C)C)cc2)c1 | 18 | – | – | –
36 | O=C(O)C[C@H](C(=O)NCCCOCCCCOCCCNC(=O)[C@H](CC(=O)O)N(Cc1ccc(OCc2ccccc2)cc1)Cc1ccc(OCc2ccccc2)cc1)N(Cc1ccc(OCc2ccccc2)cc1)Cc1ccc(OCc2ccccc2)cc1 | 75 | 18 | – | –
37 | COC(=O)[C@H](COC(C)(C)C)NC/C=C/c1cccc(Oc2ccccc2)c1 | 8 | – | – | –
38 | O=C(O)C[C@@H](C(=O)NCCCOCCOCCOCCCNC(=O)[C@H](CC(=O)O)N(Cc1ccc(OCc2ccccc2)cc1)Cc1ccc(OCc2ccccc2)cc1)N(Cc1ccc(OCc2ccccc2)cc1)Cc1ccc(OCc2ccccc2)cc1 | 66 | 28 | – | –
39 | COC(=O)[C@H](CCCCNC(=O)OC(C)(C)C)N(Cc1cccc(OCc2ccccc2)c1)Cc1cccc(OCc2ccccc2)c1 | 7 | – | – | –
40 | O=C(O)CC[C@H](C(=O)NCCOCCOCCNC(=O)[C@H](CCC(=O)O)N(Cc1ccc(OCc2ccccc2)cc1)Cc1ccc(OCc2ccccc2)cc1)N(Cc1ccc(OCc2ccccc2)cc1)Cc1ccc(OCc2ccccc2)cc1 | 79 | – | – | –
41 | COC(=O)[C@H](CCC(=O)OC(C)(C)C)N(C/C=C/c1cccc(Oc2ccccc2)c1)C/C=C/c1cccc(Oc2ccccc2)c1 | 0 | – | – | –
42 | O=C(O)CCC(=O)NCCCC[C@@H](C(=O)NCCCOCCOCCOCCCNC(=O)[C@H](CCCCNC(=O)CCC(=O)O)N(Cc1ccc(OCc2ccccc2)cc1)Cc1ccc(OCc2ccccc2)cc1)N(Cc1ccc(OCc2ccccc2)cc1)Cc1ccc(OCc2ccccc2)cc1 | 77 | 7 | – | –
43 | COC(=O)[C@H](CCC(=O)O)N(C/C=C/c1cccc(Oc2ccc(Cl)c(Cl)c2)c1)C/C=C/c1cccc(Oc2ccc(Cl)c(Cl)c2)c1 | 32 | – | – | –
